In US20100029657A1, “Bridged, Bicyclic Heterocyclic or Spiro Bicyclic Heterocyclic Derivatives of Pyrazolo[1, 5-A]Pyrimidines, Methods for Preparation and Uses Thereof” (Wyeth, priority 2008, published 2010):

What follows are compounds tested against T1, Flag/GST-tagged recombinant human B-Raf (Homo sapiens, UniProt P15056) (assay: B-Raf kinase assay (phosphorylation of GST-MEK1, phospho-MEK1 antibody/Europium detection)). Details: B-Raf IC50 Data for compounds of Formula A; read-out: Mean IC50.
T1 construct: Flag; GST; made in house; host or cells: Sf9 insect cells (B-Raf); E. coli (MEK1-GST)
T1 sequence (P15056 whole entry): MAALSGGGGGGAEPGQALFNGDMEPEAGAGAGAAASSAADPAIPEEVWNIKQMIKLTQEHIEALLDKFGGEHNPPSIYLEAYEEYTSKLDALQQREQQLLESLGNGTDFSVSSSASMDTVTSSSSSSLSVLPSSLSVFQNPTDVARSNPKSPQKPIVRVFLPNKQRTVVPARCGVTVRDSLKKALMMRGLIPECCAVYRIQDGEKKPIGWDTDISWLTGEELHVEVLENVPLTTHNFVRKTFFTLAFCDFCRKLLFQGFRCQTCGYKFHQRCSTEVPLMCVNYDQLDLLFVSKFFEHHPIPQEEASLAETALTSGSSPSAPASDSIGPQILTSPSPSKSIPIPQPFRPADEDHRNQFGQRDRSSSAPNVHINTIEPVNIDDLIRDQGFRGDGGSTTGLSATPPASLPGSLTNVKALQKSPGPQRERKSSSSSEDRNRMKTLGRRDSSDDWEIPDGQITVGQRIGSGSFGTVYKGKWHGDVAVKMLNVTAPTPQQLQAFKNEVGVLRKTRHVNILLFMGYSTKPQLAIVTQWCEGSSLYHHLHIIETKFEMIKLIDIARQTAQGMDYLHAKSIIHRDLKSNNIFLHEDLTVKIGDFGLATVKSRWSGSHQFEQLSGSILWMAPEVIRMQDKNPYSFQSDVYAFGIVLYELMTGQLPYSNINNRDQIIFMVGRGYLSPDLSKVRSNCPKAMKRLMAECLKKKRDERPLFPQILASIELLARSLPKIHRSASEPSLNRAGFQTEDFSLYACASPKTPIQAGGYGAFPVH
Format: biochemical
Method in brief: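 Active B-Raf (0.2 nM) phosphorylates GST-MEK1 in 20 mM MOPS pH 7.2 buffer with DTT, vanadate and 0.01% Triton X-100. The Mg/ATP cocktail (200 μM ATP, 40 mM MgCl2) is added, then incubation runs 45 min at RT. Product is captured on anti-GST plates and detected by anti-phospho-MEK1 plus Europium-anti-rabbit fluorescence, giving % inhibition per concentration.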

| SMILES | IC50 |
| --- | --- |
| Cc1cc(N2C[C@@H]3C[C@H]2CN3)ccc1-c1ccnc2c(-c3ccc(F)c4[nH]ncc34)c(-c3ccncc3)nn12 [Example 135, 7-{4-[(1S,4S)-2,5-diazabicyclo[2.2.1]hept-2-yl]-2-methylphenyl}-3-(7-fluoro-1H-indazol-4-yl)-2-pyridin-4-ylpyrazolo[1,5-a]pyrimidine] | < 0.3 nM |
| Cc1cc(N2C[C@@H]3C[C@H]2CN3C)ccc1-c1ccnc2c(-c3ccc(F)c4[nH]ncc34)c(-c3ccncc3)nn12 [Example 136, 3-(7-fluoro-1H-indazol-4-yl)-7-{2-methyl-4-[(1S,4S)-5-methyl-2,5-diazabicyclo[2.2.1]hept-2-yl]phenyl}-2-pyridin-4-ylpyrazolo[1,5-a]pyrimidine] | < 0.3 nM |
| Fc1ccc(-c2c(-c3ccncc3)nn3c(C4CC5CCC(C4)N5)ccnc23)c2cn[nH]c12 (stereo not drawn) [Example 137, 7-(8-azabicyclo[3.2.1]oct-3-yl)-3-(7-fluoro-1H-indazol-4-yl)-2-pyridin-4-ylpyrazolo[1,5-a]pyrimidine] | 3.8 nM |
| N#CCN1C2CCC1CC(c1ccnc3c(-c4ccc(F)c5[nH]ncc45)c(-c4ccncc4)nn13)C2 (stereo not drawn) [Example 138, {3-[3-(7-fluoro-1H-indazol-4-yl)-2-pyridin-4-ylpyrazolo[1,5-a]pyrimidin-7-yl]-8-azabicyclo[3.2.1]oct-8-yl}acetonitrile] | 0.4 nM |
| Clc1ccc(-c2c(-c3ccncc3)nn3ccc(-c4ccc(N5C[C@@H]6C[C@H]5CN6)cc4)nc23)c2cn[nH]c12 [Example 139, 3-(7-chloro-1H-indazol-4-yl)-5-{4-[(1S,4S)-2,5-diazabicyclo[2.2.1]hept-2-yl]phenyl}-2-pyridin-4-ylpyrazolo[1,5-a]pyrimidine] | 1.2 nM |
| CN1C2CCC1CN(c1ccc(-c3ccnc4c(-c5cccc6[nH]ncc56)c(-c5ccncc5)nn34)cn1)C2 [Example 140, 3-(1H-indazol-4-yl)-7-[6-(8-methyl-3,8-diazabicyclo[3.2.1]oct-3-yl)pyridin-3-yl]-2-pyridin-4-ylpyrazolo[1,5-a]pyrimidine] | 1.2 nM |
| CN1C[C@@H]2C[C@H]1CN2c1ccc(-c2ccnc3c(-c4ccc(Cl)c5[nH]ncc45)c(-c4ccncc4)nn23)cc1 [Example 141, 3-(7-chloro-1H-indazol-4-yl)-7-{4-[(1S,4S)-5-methyl-2,5-diazabicyclo[2.2.1]hept-2-yl]phenyl}-2-pyridin-4-ylpyrazolo[1,5-a]pyrimidine] | 2.3 nM |
| c1cc(-c2c(-c3ccncc3)nn3c(C4CCC5(CC4)OCCO5)ccnc23)c2cn[nH]c2c1 [Example 142, 7-(1,4-dioxaspiro[4.5]dec-8-yl)-3-(1H-indazol-4-yl)-2-pyridin-4-ylpyrazolo[1,5-a]pyrimidine] | 2.2 nM |
| CN1C[C@@H]2CC[C@H]1CN2c1ccc(-c2ccnc3c(-c4cccc5[nH]ncc45)c(-c4ccncc4)nn23)cc1 [Example 143, 3-(1H-indazol-4-yl)-7-{4-[(1S,4S)-5-methyl-2,5-diazabicyclo[2.2.2]oct-2-yl]phenyl}-2-pyridin-4-ylpyrazolo[1,5-a]pyrimidine] | 0.7 nM |
| c1cc(-c2c(-c3ccncc3)nn3c(-c4ccc(N5C[C@@H]6CC[C@H]5CN6)cc4)ccnc23)c2cn[nH]c2c1 [Example 144, 7-{4-[(1S,4S)-2,5-diazabicyclo[2.2.2]oct-2-yl]phenyl}-3-(1H-indazol-4-yl)-2-pyridin-4-ylpyrazolo[1,5-a]pyrimidine] | 0.6 nM |
| Fc1cc(F)c(-c2ccnc3c(-c4cccc5[nH]ncc45)c(-c4ccncc4)nn23)c(N2C[C@@H]3C[C@H]2CN3)c1 [Example 145, 7-{2-[(1S,4S)-2,5-diazabicyclo[2.2.1]hept-2-yl]-4,6-difluorophenyl}-3-(1H-indazol-4-yl)-2-pyridin-4-ylpyrazolo[1,5-a]pyrimidine] | 74.4 nM |
| CN(C)c1cc(N2C[C@@H]3C[C@H]2CN3)ccc1-c1ccnc2c(-c3cccc4[nH]ncc34)c(-c3ccncc3)nn12 [Example 146, 5-[(1S,4S)-2,5-diazabicyclo[2.2.1]hept-2-yl]-2-[3-(1H-indazol-4-yl)-2-pyridin-4-ylpyrazolo[1,5-a]pyrimidin-7-yl]-N,N-dimethylaniline] | 6.3 nM |
| CN1C[C@@H]2C[C@H]1CN2c1cc(F)cc(F)c1-c1ccnc2c(-c3cccc4[nH]ncc34)c(-c3ccncc3)nn12 [Example 147, 7-{2,4-difluoro-6-[(1S,4S)-5-methyl-2,5-diazabicyclo[2.2.1]hept-2-yl]phenyl}-3-(1H-indazol-4-yl)-2-pyridin-4-ylpyrazolo[1,5-a]pyrimidine] | > 100 nM |
| CN(C)c1cc(N2C[C@@H]3C[C@H]2CN3C)ccc1-c1ccnc2c(-c3cccc4[nH]ncc34)c(-c3ccncc3)nn12 [Example 148, 2-[3-(1H-indazol-4-yl)-2-pyridin-4-ylpyrazolo[1,5-a]pyrimidin-7-yl]-N,N-dimethyl-5-[(1S,4S)-5-methyl-2,5-diazabicyclo[2.2.1]hept-2-yl]aniline] | 7.3 nM |
| c1cc(-c2c(-c3ccncc3)nn3c2nccc3[C@H]2CC[C@@H](N3C[C@@H]4C[C@H]3CN4)CC2)c2cn[nH]c2c1 [Example 149, 7-{cis-4-[(1S,4S)-2,5-diazabicyclo[2.2.1]hept-2-yl]cyclohexyl}-3-(1H-indazol-4-yl)-2-pyridin-4-ylpyrazolo[1,5-a]pyrimidine] | 3.2 nM |
| c1cc(-c2c(-c3ccncc3)nn3c2nccc3[C@H]2CC[C@@H](N3C[C@@H]4C[C@H]3CO4)CC2)c2cn[nH]c2c1 [Example 154, 3-(1H-indazol-4-yl)-7-{cis-4-[(1S,4S)-2-oxa-5-azabicyclo[2.2.1]hept-5-yl]cyclohexyl}-2-pyridin-4-ylpyrazolo[1,5-a]pyrimidine] | 11.4 nM |
| c1cc(-c2c(-c3ccncc3)nn3c2nccc3[C@H]2CC[C@H](N3C[C@@H]4C[C@H]3CO4)CC2)c2cn[nH]c2c1 [Example 155, 3-(1H-indazol-4-yl)-7-{trans-4-[(1S,4S)-2-oxa-5-azabicyclo[2.2.1]hept-5-yl]cyclohexyl}-2-pyridin-4-ylpyrazolo[1,5-a]pyrimidine] | 3.5 nM |
| c1cc(-c2c(-c3ccncc3)nn3c2nccc3[C@H]2CC[C@H](N3C[C@@H]4C[C@H]3CN4)CC2)c2cn[nH]c2c1 [Example 156, 7-{trans-4-[(1S,4S)-2,5-diazabicyclo[2.2.1]hept-2-yl]cyclohexyl}-3-(1H-indazol-4-yl)-2-pyridin-4-ylpyrazolo[1,5-a]pyrimidine] | 0.6 nM |
| FC(F)(F)c1cc(-c2ccnc3c(-c4cccc5[nH]ncc45)c(-c4ccncc4)nn23)ccc1N1C[C@@H]2C[C@H]1CN2 [Example 157, 7-{4-[(1S,4S)-2,5-diazabicyclo[2.2.1]hept-2-yl]-3-(trifluoromethyl)phenyl}-3-(1H-indazol-4-yl)-2-pyridin-4-ylpyrazolo[1,5-a]pyrimidine] | 1.2 nM |
| c1cc(-c2c(-c3ccncc3)nn3c(-c4ccc(N5C[C@@H]6C[C@H]5CN6)c5ccccc45)ccnc23)c2cn[nH]c2c1 [Example 158, 7-{4-[(1S,4S)-2,5-diazabicyclo[2.2.1]hept-2-yl]-1-naphthyl}-3-(1H-indazol-4-yl)-2-pyridin-4-ylpyrazolo[1,5-a]pyrimidine] | 20.9 nM |
| CN1C[C@@H]2C[C@H]1CN2c1ccc(-c2ccnc3c(-c4cccc5[nH]ncc45)c(-c4ccncc4)nn23)cc1C(F)(F)F [Example 159, 3-(1H-indazol-4-yl)-7-{4-[(1S,4S)-5-methyl-2,5-diazabicyclo[2.2.1]hept-2-yl]-3-(trifluoromethyl)phenyl}-2-pyridin-4-ylpyrazolo[1,5-a]pyrimidine] | 2 nM |
| CN1C[C@@H]2C[C@H]1CN2c1ccc(-c2ccnc3c(-c4cccc5[nH]ncc45)c(-c4ccncc4)nn23)c2ccccc12 [Example 160, 3-(1H-indazol-4-yl)-7-{4-[(1S,4S)-5-methyl-2,5-diazabicyclo[2.2.1]hept-2-yl]-1-naphthyl}-2-pyridin-4-ylpyrazolo[1,5-a]pyrimidine] | 25.3 nM |
| Fc1cc(-c2ccnc3c(-c4cccc5[nH]ncc45)c(-c4ccncc4)nn23)cc(F)c1N1C[C@@H]2C[C@H]1CN2 [Example 161, 7-{4-[(1S,4S)-2,5-diazabicyclo[2.2.1]hept-2-yl]-3,5-difluorophenyl}-3-(1H-indazol-4-yl)-2-pyridin-4-ylpyrazolo[1,5-a]pyrimidine] | 2.7 nM |
| Fc1c(-c2ccnc3c(-c4cccc5[nH]ncc45)c(-c4ccncc4)nn23)ccc(N2C[C@@H]3C[C@H]2CN3)c1F [Example 162, 7-{4-[(1S,4S)-2,5-diazabicyclo[2.2.1]hept-2-yl]-2,3-difluorophenyl}-3-(1H-indazol-4-yl)-2-pyridin-4-ylpyrazolo[1,5-a]pyrimidine] | 0.5 nM |
| Fc1cc(N2C[C@@H]3C[C@H]2CN3)c(F)cc1-c1ccnc2c(-c3cccc4[nH]ncc34)c(-c3ccncc3)nn12 [Example 163, 7-{4-[(1S,4S)-2,5-diazabicyclo[2.2.1]hept-2-yl]-2,5-difluorophenyl}-3-(1H-indazol-4-yl)-2-pyridin-4-ylpyrazolo[1,5-a]pyrimidine] | < 0.3 nM |
| CN1C[C@@H]2C[C@H]1CN2c1c(F)cc(-c2ccnc3c(-c4cccc5[nH]ncc45)c(-c4ccncc4)nn23)cc1F [Example 164, 7-{3,5-difluoro-4-[(1S,4S)-5-methyl-2,5-diazabicyclo[2.2.1]hept-2-yl]phenyl}-3-(1H-indazol-4-yl)-2-pyridin-4-ylpyrazolo[1,5-a]pyrimidine] | 9.6 nM |
| CN1C[C@@H]2C[C@H]1CN2c1ccc(-c2ccnc3c(-c4cccc5[nH]ncc45)c(-c4ccncc4)nn23)c(F)c1F [Example 165, 7-{2,3-difluoro-4-[(1S,4S)-5-methyl-2,5-diazabicyclo[2.2.1]hept-2-yl]phenyl}-3-(1H-indazol-4-yl)-2-pyridin-4-ylpyrazolo[1,5-a]pyrimidine] | 0.6 nM |
